Measured values: patent US20140024132A1, “METHODS AND SYSTEMS USING INTEGRATED METABOLOMICS AND PHARMACOKINETICS FOR MULTI-COMPONENT DRUG EVALUATION” (priority 2010, published 2014)

Experiments:
[1] = tested on: human metabolite endpoints; experiment: Urinary metabolomic response during 6-week study (24 h, 2 week daily Pu-erh tea intake, 2 week wash-out) vs pre-dose, OPLS-DA and S-plot; type: in vivo; conditions: 2 week of Pu-erh tea daily intake vs pre-dose, human urine
Description: (§1) Volunteers were provided with identical standard meals three times per day during the experiment (e.g., breakfast: milk and bread; lunch: beef and vegetables; dinner: pork and cabbage). […] Urine samples were stored at −80° C. before analysis.

[2] = Urine levels of biotransformed Pu-erh tea metabolites (produced in vivo) after a single Pu-erh tea intake, UPLC-QTOFMS and GC-TOFMS profiling; set-up: species or system human
Description: Approximately 1 kg of 5-year-old Pu-erh tea was mixed to produce a homogeneous sample, and then ground into a fine powder and filtered through a 20 mesh screen. The Pu-erh tea was prepared by infusing 10 g powder in 200 mL boiling water for 10 min, followed by straining. Participants received a dose equivalent to 5 cups of commercially prepared tea. Twenty healthy men (n=10) and women (n=10) whose mean age was 25±2 years (range 22-32) were enrolled in this study, and written consent was obtained from each participant.
Volunteers were provided with identical standard meals three times per day during the experiment (e.g., breakfast: milk and bread; lunch: beef and vegetables; dinner: pork and cabbage). Urine samples of 12 healthy men (n=6) and women (n=6) selected from the 20 participants were collected just before breakfast including the 200 mL Pu-erh tea and at 1 h, 3 h, 6 h, 9 h, 12 h, and 24 h thereafter. Spot urine samples of all 20 participants were collected daily between 11:00 and 11:30 a.m. during a 6-week period that included a 2-week baseline phase, a 2-week daily Pu-erh tea ingestion phase, and a 2-week post-dosing phase. […] Urine samples were stored at −80° C. before analysis.
(§2) The tea infusion used in this study and the collected urine samples were centrifuged at 13,000 rpm for 10 min at 4° C., and the resulting supernatants were immediately stored at −80° C. pending UPLC-QTOFMS analysis. Ultrapure water (500 μL) was added to the tea or urine sample (500 μL) and vortexed for 1 min. The sample was then filtered through a syringe filter (0.22 μm) for UPLC-QTOFMS analysis.; incorporated by reference herein in its entirety.
(§3) The tea infusion (100 μL) described in Example 2 and urine samples (100 μL) were spiked with two internal standard solutions (10 μL-2-chlorophenylalanine in water, 0.3 mg/ml; 10 μL heptadecanoic acid in methanol, 1 mg/mL), and vortexed for 10 seconds. The mixed solution was extracted with 300 μL of methanol:chloroform (v/v 3:1) and vortexed for 30 seconds. After storing for 10 min at −20° C., the samples were centrifuged at 10,000 rpm for 10 min. An aliquot of the 300 μL supernatant was transferred to a glass sampling vial to vacuum dry at room temperature. The residue was derivatized using a two-step procedure. First, 80 μL methoxyamine (15 mg/mL in pyridine,) was added to the vial and kept at 30° C. for 90 min followed by 80 μL BSTFA (1% TMCS) at 70° C. for 60 min. See protocols set forth in Ni et al., FEBS Lett. 581: 707-711 (2007).; incorporated by reference herein in its entirety.
(§4) UPLC: Tea and urine metabolite profiling were performed using a Waters ACQUITY UPLC system equipped with a binary solvent delivery manager and a sample manager (Waters Corporation, Milford, Mass., USA), coupled to a Micromass Q-TOF Premier mass spectrometry equipped with an electrospray interface (Waters Corporation, Milford, M A, USA). Chromatographic separations were performed on a 2.1×100 mm 1.7 μm ACQUITY BEH C18 chromatography column. The column was maintained at 45° C. and eluted with a 1-99% acetonitrile (0.1% (v/v) formic acid)-aqueous formic acid (0.1% (v/v) formic acid) gradient over 10 min at a flow rate of 0.40 mL/min. A 5 μL aliquot sample was injected onto the column.
Mass Spectrometry: The mass accuracy analysis and detailed MS parameters were optimized according to our prior studies, which is incorporated herein in its entirety. During metabolite profiling experiments, centroid data was acquired for each sample from 50 to 1000 Da with a 0.10 sec scan time and a 0.01 sec interscan delay over a 10 min analysis time. A metabonomics MS System Test Mixture including acetaminophen, tolbutamide, 3′-azido-3′-deoxythymidine, reserpine, verapamil and coumarin was used as chromatographic reference and mass accuracy quality control. This test mixture was injected every ten injections. The mass spectrometer was operated in positive ion mode. […]

[3] = Urine levels of absorbed (bioavailable) Pu-erh tea components after a single Pu-erh tea intake, UPLC-QTOFMS and GC-TOFMS profiling; type: in vivo, human; conditions: for FC (fold change): absorbed Pu-erh tea metabolite, human urine
Description: (§5) Participants received a dose equivalent to 5 cups of commercially prepared tea. Twenty healthy men (n=10) and women (n=10) whose mean age was 25±2 years (range 22-32) were enrolled in this study, and written consent was obtained from each participant.
as §1, §2, §3, §4
(§6) Mass Spectrometry: The mass accuracy analysis and detailed MS parameters were optimized according to our prior studies, which is incorporated herein in its entirety. During metabolite profiling experiments, centroid data was acquired for each sample from 50 to 1000 Da with a 0.10 sec scan time and a 0.01 sec interscan delay over a 10 min analysis time. A metabonomics MS System Test Mixture including acetaminophen, tolbutamide, 3′-azido-3′-deoxythymidine, reserpine, verapamil and coumarin was used as chromatographic reference and mass accuracy quality control. This test mixture was injected every ten injections. The mass spectrometer was operated in positive ion mode. The desolvation temperature was set to 400° C. at a flow rate of 700 L/hr and source temperature of 100° C. The capillary and cone voltages were set to 3500 and 45 V, respectively. The data was collected between 50-1000 m/z with alternating collision energy, at 5 eV for precursor ion information generation and a collision profile from 10-40 eV for fragment ion information. The Q-TOF Premier™ was operated in v mode with 10,000 mass resolving power. Data were centroided during acquisition using independent reference lock-mass ions via the LockSpray™ interface to ensure mass accuracy and reproducibility. Leucine-enkephalin was used as the reference compound at a concentration of 50 pg/μL and an infusion flow rate of 0.05 mL/min.

[4] = Pearson correlation of absorbed, biotransformed plant metabolites and altered endogenous metabolites in urine; type: in vivo, human; conditions: ρ≧0.7 or ρ≦−0.7, urine, FIG. 13
Description: Similarly, in order to study the relationship of dynamic response of metabolites along with the time course, mean value of each metabolite was calculated at each time point (0 h→1 h→2 h→3 h→6 h→12 h→24 h). A new metabolite vector with 7 mean values calculated at 7 different time points, representing the average response, was constructed and the Pearson correlation coefficients were calculated similarly with the pair-wise comparison of metabolites.

[5] = tested on: endogenous urinary metabolite profiles; experiment: Altered endogenous urinary metabolites after a single Pu-erh tea intake, UPLC-QTOFMS and GC-TOFMS profiling; type: in vivo; conditions: human urine
Description: as §5, §1, §2, §3, §4, §6

[6] = 3 h after Pu-erh tea intake vs pre-dose
[7] = 6 h after Pu-erh tea intake vs pre-dose
[8] = 9 h after Pu-erh tea intake vs pre-dose
[9] = 12 h after Pu-erh tea intake vs pre-dose
[10] = 24 h after Pu-erh tea intake vs pre-dose
[11] = 1 h after Pu-erh tea intake vs pre-dose

Row | Compound | FC (fold change) ([3]; 1 h post-dose vs pre-dose) | FC (fold change) ([3]; 3 h post-dose vs pre-dose) | FC (fold change) ([3]; 6 h post-dose vs pre-dose) | FC (fold change) ([3]; 9 h post-dose vs pre-dose) | FC (fold change) ([3]; 12 h post-dose vs pre-dose) | FC (fold change) ([3]; 24 h post-dose vs pre-dose) | other results
1 | COc1ccc(CC(=O)O)cc1 [4-methoxyphenylacetic acid] | – | – | – | – | – | – | change of urinary excretion / concentration [1]: increased
2 | CCN [Ethylamine] | – | – | – | – | – | – | FC (fold change) [2, 6]: 3.10; FC (fold change) [2, 7]: 3.87; FC (fold change) [2, 8]: 2.65; FC (fold change) [2, 9]: 3.09; FC (fold change) [2, 10]: 1.58; FC (fold change) ([2]; l h after Pu-erh tea intake vs pre-dose): 1.73
3 | N[C@@H](Cc1c[nH]c2ccc(O)cc12)C(=O)O [5-hydroxytryptophan] | – | – | – | – | – | – | change of urinary excretion / concentration [1]: increased
4 | O=C(O)CCC(=O)O [Succinate] | 1.15 | 0.90 | 0.74 | 0.57 | 0.84 | 0.93 | –
5 | O=C(O)CC(O)(CC(=O)O)C(=O)O [Citric acid] | 1.42 | 1.76 | 1.59 | 1.20 | 1.42 | 1.17 | –
6 | Cn1c(=O)c2c(ncn2C)n(C)c1=O [Caffeine] | 454.37 | 573.74 | 437.21 | 277.02 | 160.06 | 46.28 | time at which concentration reached maximum levels in urine ([3]; absorbed plant metabolites, after oral administration of Pu-erh tea, FIG. 10A): 1 h; time at which cleared away from urine ([3]; absorbed plant metabolites, post-dose, FIG. 10A): 9 h; correlation with its biodegradated metabolites paraxanthine, theophylline, hippuric acid and 3-hydroxyphenylacetic acid [4]: positively corrected
7 | Cn1cnc2c1c(=O)[nH]c(=O)n2C [Theobromine] | 4.04 | 6.76 | 7.75 | 5.42 | 4.43 | 2.67 | –
8 | NC(C(=O)O)C(=O)O [Aminomalonic acid] | – | – | – | – | – | – | FC (fold change) [5, 11]: 1.90; FC (fold change) [5, 6]: 3.09; FC (fold change) [5, 7]: 3.09; FC (fold change) [5, 8]: 0.45; FC (fold change) [5, 9]: 0.57; FC (fold change) [5, 10]: 0.35
9 | COc1cc(CC(=O)O)ccc1O [4-Hydroxy-3-methoxyphenylacetic acid] | – | – | – | – | – | – | FC (fold change) [5, 11]: 0.39; FC (fold change) [5, 6]: 0.11; FC (fold change) [5, 7]: 0.27; FC (fold change) [5, 8]: 0.55; FC (fold change) [5, 9]: 0.85; FC (fold change) [5, 10]: 1.12
10 | COc1ccccc1O [2-Methoxyphenol] | – | – | – | – | – | – | FC (fold change) [5, 11]: 0.48; FC (fold change) [5, 6]: 0.31; FC (fold change) [5, 7]: 0.31; FC (fold change) [5, 8]: 0.41; FC (fold change) [5, 9]: 0.59; FC (fold change) [5, 10]: 0.61
11 | Cn1c(=O)c2[nH]cnc2n(C)c1=O [Theophylline] | 11.62 | 42.69 | 54.55 | 45.99 | 38.67 | 19.22 | –
12 | 3-chlorotyrosine-2-aminobenzoic acid | – | – | – | – | – | – | change of urinary excretion / concentration [1]: decreased
13 | NCCCC(=O)O [4-Aminobutanoic acid] | 3.95 | 5.14 | 24.12 | 39.08 | 100.29 | 49.03 | FC (fold change) [5, 11]: 3.95; FC (fold change) [5, 6]: 5.14; FC (fold change) [5, 7]: 24.12; FC (fold change) [5, 8]: 39.08; FC (fold change) [5, 9]: 100.29; FC (fold change) [5, 10]: 49.03
14 | O[C@H]1[C@H](O)[C@@H](O)[C@H](O)[C@@H](O)[C@H]1O [inositol] | – | – | – | – | – | – | change of urinary excretion / concentration [1]: increased
15 | O=C(O)c1cccnc1 [Nicotinic acid] | 14.31 | 62.95 | 78.98 | 63.95 | 49.02 | 27.31 | –
16 | Oc1ccc2[nH]c(O)cc2c1 [2,5-dihydroxy-1H-indole] | – | – | – | – | – | – | change of urinary excretion / concentration [1]: decreased
17 | Cc1cnc(C)c(O)c1C=O [5-Deoxypyridoxal] | 2.56 | 3.69 | 3.68 | 2.35 | 0.91 | 0.81 | –
18 | O=C(O)c1cc(O)cc(O)c1 [3,5-hydroxy benzoic acid] | – | – | – | 0.42 | 0.47 | 0.20 | –
19 | CC(C)[C@H](N)C(=O)O [Valine] | – | – | – | – | – | – | FC (fold change) [5, 11]: 2.58; FC (fold change) [5, 6]: 1.25; FC (fold change) [5, 7]: 2.16; FC (fold change) [5, 8]: 2.32; FC (fold change) [5, 9]: 2.76; FC (fold change) [5, 10]: 1.38
20 | Oc1ccccc1 [Phenol] | – | – | – | – | – | – | FC (fold change) [5, 11]: 1.04; FC (fold change) [5, 6]: 1.22; FC (fold change) [5, 7]: 1.43; FC (fold change) [5, 8]: 1.14; FC (fold change) [5, 9]: 1.32; FC (fold change) [5, 10]: 2.22
21 | NCC(=O)O [Glycine] | 1.28 | 1.67 | 2.32 | 1.53 | 1.77 | 1.04 | –
